According to ChEMBL document CHEMBL1138368, “Synthesis of thiazolone-based sulfonamides as inhibitors of HCV NS5B polymerase” (Bioorg Med Chem Lett, 2007):

Molecular target: not listed separately
Assay: Inhibition of HCV NS5B polymerase […]
Parameters: species or system Hepacivirus hominis

| Structure (SMILES) | IC50 [µM] |
| --- | --- |
| CCc1ccc(/C=C2\SC(NS(=O)(=O)c3ccccc3N)=NC2=O)o1 | 11 |
| Cc1ccc(S(=O)(=O)NC2=NC(=O)C(Cc3ccc(Br)o3)S2)cc1 (stereo not drawn) | 40 |
| CCc1ccc(CC2SC(NS(=O)(=O)c3ccc(C)cc3)=NC2=O)o1 (stereo not drawn) | 7.3 |
| Cc1ccc(S(=O)(=O)NC2=NC(=O)/C(=C/C=C/c3ccco3)S2)cc1 | 5 |
| Cc1ccc(S(=O)(=O)NC2=NC(=O)/C(=C/c3ccc(-c4ccccc4)o3)S2)cc1 | 5.5 |
| Cc1ccc(S(=O)(=O)NC2=NC(=O)/C(=C/c3cccs3)S2)cc1 | 12 |
| Cc1ccc(S(=O)(=O)NC2=NC(=O)/C(=C/c3cc(C)c(Cl)s3)S2)cc1 | 10 |
| Cc1ccc(S(=O)(=O)NC2=NC(=O)/C(=C/c3ccc(-c4nc(C(C)(C)C)cs4)cc3)S2)cc1 | 4.9 |
| Cc1ccc(S(=O)(=O)NC2=NC(=O)/C(=C/c3ccc(-n4cccn4)cc3)S2)cc1 | 10 |
| Cc1ccc(S(=O)(=O)NC2=NC(=O)/C(=C/c3ccc(Br)o3)S2)cc1 | 2.7 |
| CCc1ccc(/C=C2\SC(NS(=O)(=O)c3ccc(C)cc3)=NC2=O)o1 | 1.4 |
| CCCCCCCN(C1=NC(=O)/C(=C/c2ccc(CC)o2)S1)S(=O)(=O)c1ccc(C)cc1 | > 100 |
| Cc1ccc(S(=O)(=O)NC2=NC(=O)/C(=C/c3ccc(C)o3)S2)cc1 | 11 |
| Cc1ccc(C(=O)NC2=NC(=O)/C(=C/c3cccs3)S2)cc1 | 33 |
| CCc1ccc(/C=C2\SC(NC(=O)c3ccc(C)cc3)=NC2=O)o1 | 13 |
| Cc1ccc(S(=O)(=O)NC2=NC(=O)/C(=C/c3ccc([N+](=O)[O-])s3)S2)cc1 | 4.2 |
| Cc1ccc(C(=O)NC2=NC(=O)/C(=C/c3ccc(-c4nccs4)o3)S2)cc1 | 44 |
| Cc1ccc(C(=O)NC2=NC(=O)/C(=C/c3ccc(-c4ccc(-c5csnn5)cc4)o3)S2)cc1 | 11 |
| Cc1ccc(S(=O)(=O)NC2=NC(=O)/C(=C/c3ccc(-c4csnn4)cc3)S2)cc1 | 1.4 |
| Cc1ccc(S(=O)(=O)NC2=NC(=O)/C(=C/c3ccc(-n4cncn4)cc3)S2)cc1 | 32 |
| Cc1ccc(S(=O)(=O)NC2=NC(=O)/C(=C/c3ccc(-n4ccnc4)cc3)S2)cc1 | > 100 |
| Cc1ccc(S(=O)(=O)NC2=NC(=O)/C(=C/c3ccc(N4CCCC4)cc3)S2)cc1 | 1.4 |
| CCc1ccc(/C=C2\SC(NS(=O)(=O)c3ccc(C(F)(F)F)cc3)=NC2=O)o1 | 3.2 |
| Cc1ccc(S(=O)(=O)NC2=NC(=O)C(CCCc3ccccn3)S2)cc1 (stereo not drawn) | > 100 |
| CCCCCN(C1=NC(=O)/C(=C/c2ccc(CC)o2)S1)S(=O)(=O)c1ccc(C)cc1 | > 100 |
| Cc1ccc(S(=O)(=O)NC2=NC(=O)C(Cc3ccc(I)o3)S2)cc1 (stereo not drawn) | 15 |
| CCCCN(C1=NC(=O)/C(=C/c2ccc(CC)o2)S1)S(=O)(=O)c1ccc(C)cc1 | > 100 |
| Cc1ccc(S(=O)(=O)NC2=NC(=O)/C(=C/c3ccc(N4CCOCC4)cc3)S2)cc1 | 12 |
| Cc1ccc(C(=O)NC2=NC(=O)/C(=C/c3ccc(-c4[nH]cnc4C)o3)S2)cc1 | > 100 |

The remaining lines, values ahead:

| IC50 [µM] | Structure (SMILES) |
| --- | --- |
| 8 | CCc1ccc(/C=C2\SC(NS(=O)(=O)c3cccs3)=NC2=O)o1 |
| 74 | Cc1ccc(S(=O)(=O)NC2=NC(=O)C(Cc3ccco3)S2)cc1 (stereo not drawn) |
| 18 | CCc1ccc(/C=C2\SC(NS(=O)(=O)c3ccccc3[N+](=O)[O-])=NC2=O)o1 |
| 0.6 | Cc1ccc(S(=O)(=O)NC2=NC(=O)/C(=C/C=C/c3ccccn3)S2)cc1 |
| 11 | Cc1ccc(S(=O)(=O)NC2=NC(=O)/C(=C/c3ccco3)S2)cc1 |
| > 100 | CCCCCCN(C1=NC(=O)/C(=C/c2ccc(CC)o2)S1)S(=O)(=O)c1ccc(C)cc1 |
| 16 | Cc1ccc(C(=O)NC2=NC(=O)/C(=C/c3ccc(C)o3)S2)cc1 |
| 34 | CCc1ccc(/C=C2\SC(NS(=O)(=O)c3ccccc3NC(C)=O)=NC2=O)o1 |
| 14 | Cc1ccc(S(=O)(=O)NC2=NC(=O)/C(=C/c3ccc(C)s3)S2)cc1 |
| 3.2 | CCc1ccc(/C=C2\SC(NS(=O)(=O)c3ccc([N+](=O)[O-])cc3)=NC2=O)o1 |
| > 100 | CCN(CC)c1ccc(/C=C2\SC(NS(=O)(=O)c3ccc(C)cc3)=NC2=O)cc1 |
| 2.8 | Cc1ccc(S(=O)(=O)NC2=NC(=O)/C(=C/c3ccc(I)o3)S2)cc1 |
| 3.2 | Cc1ccc(S(=O)(=O)NC2=NC(=O)/C(=C/c3cc(C)c(C)o3)S2)cc1 |

System: Hepatitis C virus
Assay: Antiviral activity against HCV replicon assay
Format: functional, organism-based, Hepacivirus hominis

| Structure (SMILES) | EC50 [µM] |
| --- | --- |
| CCc1ccc(/C=C2\SC(NS(=O)(=O)c3ccccc3N)=NC2=O)o1 | 27 |
| Cc1ccc(S(=O)(=O)NC2=NC(=O)C(Cc3ccc(Br)o3)S2)cc1 (stereo not drawn) | 64 |
| CCc1ccc(CC2SC(NS(=O)(=O)c3ccc(C)cc3)=NC2=O)o1 (stereo not drawn) | 33 |
| Cc1ccc(S(=O)(=O)NC2=NC(=O)/C(=C/C=C/c3ccco3)S2)cc1 | 55 |
| Cc1ccc(S(=O)(=O)NC2=NC(=O)/C(=C/c3ccc(-c4ccccc4)o3)S2)cc1 | 55 |
| Cc1ccc(S(=O)(=O)NC2=NC(=O)/C(=C/c3cccs3)S2)cc1 | 80 |
| Cc1ccc(S(=O)(=O)NC2=NC(=O)/C(=C/c3cc(C)c(Cl)s3)S2)cc1 | 200 |
| Cc1ccc(S(=O)(=O)NC2=NC(=O)/C(=C/c3ccc(-c4nc(C(C)(C)C)cs4)cc3)S2)cc1 | 9 |
| Cc1ccc(S(=O)(=O)NC2=NC(=O)/C(=C/c3ccc(-n4cccn4)cc3)S2)cc1 | 70 |
| Cc1ccc(S(=O)(=O)NC2=NC(=O)/C(=C/c3ccc(Br)o3)S2)cc1 | 50 |
| CCc1ccc(/C=C2\SC(NS(=O)(=O)c3ccc(C)cc3)=NC2=O)o1 | 25 |
| CCCCCCCN(C1=NC(=O)/C(=C/c2ccc(CC)o2)S1)S(=O)(=O)c1ccc(C)cc1 | 90 |
| Cc1ccc(C(=O)NC2=NC(=O)/C(=C/c3cccs3)S2)cc1 | 100 |
| CCc1ccc(/C=C2\SC(NC(=O)c3ccc(C)cc3)=NC2=O)o1 | 200 |
| Cc1ccc(S(=O)(=O)NC2=NC(=O)/C(=C/c3ccc([N+](=O)[O-])s3)S2)cc1 | 7 |
| Cc1ccc(C(=O)NC2=NC(=O)/C(=C/c3ccc(-c4nccs4)o3)S2)cc1 | 120 |
| Cc1ccc(C(=O)NC2=NC(=O)/C(=C/c3ccc(-c4ccc(-c5csnn5)cc4)o3)S2)cc1 | 70 |
| Cc1ccc(S(=O)(=O)NC2=NC(=O)/C(=C/c3ccc(-c4csnn4)cc3)S2)cc1 | 20 |
| Cc1ccc(S(=O)(=O)NC2=NC(=O)/C(=C/c3ccc(-n4cncn4)cc3)S2)cc1 | 100 |
| Cc1ccc(S(=O)(=O)NC2=NC(=O)/C(=C/c3ccc(-n4ccnc4)cc3)S2)cc1 | 60 |
| Cc1ccc(S(=O)(=O)NC2=NC(=O)/C(=C/c3ccc(N4CCCC4)cc3)S2)cc1 | 25 |
| CCc1ccc(/C=C2\SC(NS(=O)(=O)c3ccc(C(F)(F)F)cc3)=NC2=O)o1 | 30 |
| Cc1ccc(S(=O)(=O)NC2=NC(=O)C(CCCc3ccccn3)S2)cc1 (stereo not drawn) | 180 |
| CCCCCN(C1=NC(=O)/C(=C/c2ccc(CC)o2)S1)S(=O)(=O)c1ccc(C)cc1 | 55 |
| Cc1ccc(S(=O)(=O)NC2=NC(=O)C(Cc3ccc(I)o3)S2)cc1 (stereo not drawn) | 40 |
| CCCCN(C1=NC(=O)/C(=C/c2ccc(CC)o2)S1)S(=O)(=O)c1ccc(C)cc1 | 33 |
| Cc1ccc(S(=O)(=O)NC2=NC(=O)/C(=C/c3ccc(N4CCOCC4)cc3)S2)cc1 | 180 |
| Cc1ccc(C(=O)NC2=NC(=O)/C(=C/c3ccc(-c4[nH]cnc4C)o3)S2)cc1 | 220 |

The remaining lines, values ahead:

| EC50 [µM] | Structure (SMILES) |
| --- | --- |
| 40 | CCc1ccc(/C=C2\SC(NS(=O)(=O)c3cccs3)=NC2=O)o1 |
| 200 | Cc1ccc(S(=O)(=O)NC2=NC(=O)C(Cc3ccco3)S2)cc1 (stereo not drawn) |
| 90 | CCc1ccc(/C=C2\SC(NS(=O)(=O)c3ccccc3[N+](=O)[O-])=NC2=O)o1 |
| 35 | Cc1ccc(S(=O)(=O)NC2=NC(=O)/C(=C/C=C/c3ccccn3)S2)cc1 |
| 60 | Cc1ccc(S(=O)(=O)NC2=NC(=O)/C(=C/c3ccco3)S2)cc1 |
| 70 | CCCCCCN(C1=NC(=O)/C(=C/c2ccc(CC)o2)S1)S(=O)(=O)c1ccc(C)cc1 |
| 60 | Cc1ccc(C(=O)NC2=NC(=O)/C(=C/c3ccc(C)o3)S2)cc1 |
| 200 | CCc1ccc(/C=C2\SC(NS(=O)(=O)c3ccccc3NC(C)=O)=NC2=O)o1 |
| 70 | Cc1ccc(S(=O)(=O)NC2=NC(=O)/C(=C/c3ccc(C)s3)S2)cc1 |
| 200 | CCc1ccc(/C=C2\SC(NS(=O)(=O)c3ccc([N+](=O)[O-])cc3)=NC2=O)o1 |
| 90 | CCN(CC)c1ccc(/C=C2\SC(NS(=O)(=O)c3ccc(C)cc3)=NC2=O)cc1 |
| 38 | Cc1ccc(S(=O)(=O)NC2=NC(=O)/C(=C/c3ccc(I)o3)S2)cc1 |
| 200 | Cc1ccc(S(=O)(=O)NC2=NC(=O)/C(=C/c3cc(C)c(C)o3)S2)cc1 |
